Reference: the NIST ThermoML archive (doi:10.1021/acs.jced.8b00132)
Values joined by “and” are separate entries in the source; they are usually repeats but may differ in a detail not shown here. Equal values may be shown once.

Conditions: Gas

O=C(C(F)(F)C(F)(F)F)C(F)(C(F)(F)F)C(F)(F)F [dodecafluoro-2-methylpentan-3-one]
Conditions | thermal conductivity
454.15 K, 782 kPa, transient hot wire | 0.02353 W/m/K
454.15 K, 47000 kPa, transient hot wire | 0.06263 W/m/K
454.17 K, 779 kPa, transient hot wire | 0.02342 W/m/K
454.18 K, 46933 kPa, transient hot wire | 0.06269 W/m/K and 0.06261 W/m/K
454.2 K, 169 kPa, hot wire | 0.0226 W/m/K
454.2 K, 1365 kPa, transient hot wire | 0.0246 W/m/K
454.21 K, 169 kPa, hot wire | 0.02248 W/m/K
454.21 K, 1366 kPa, transient hot wire | 0.02448 W/m/K
454.22 K, 47 kPa, hot wire | 0.0225 W/m/K and 0.02246 W/m/K
454.23 K, 526 kPa, transient hot wire | 0.02368 W/m/K
454.26 K, 526 kPa, transient hot wire | 0.02374 W/m/K
454.32 K, 351 kPa, transient hot wire | 0.02402 W/m/K
454.32 K, 354 kPa, transient hot wire | 0.02406 W/m/K
454.33 K, 781 kPa, transient hot wire | 0.02352 W/m/K
454.36 K, 1365 kPa, transient hot wire | 0.02461 W/m/K
454.38 K, 1365 kPa, transient hot wire | 0.02468 W/m/K
454.41 K, 524 kPa, transient hot wire | 0.02367 W/m/K
454.41 K, 526 kPa, transient hot wire | 0.02369 W/m/K
454.49 K, 780 kPa, transient hot wire | 0.02364 W/m/K
454.5 K, 345 kPa, transient hot wire | 0.02401 W/m/K
454.5 K, 348 kPa, transient hot wire | 0.02403 W/m/K
454.5 K, 779 kPa, transient hot wire | 0.02369 W/m/K
454.54 K, 1365 kPa, transient hot wire | 0.02476 W/m/K
454.58 K, 524 kPa, transient hot wire | 0.02372 W/m/K
454.6 K, 523 kPa, transient hot wire | 0.02364 W/m/K
454.67 K, 776 kPa, transient hot wire | 0.0236 W/m/K
454.68 K, 341 kPa, transient hot wire | 0.02404 W/m/K
454.68 K, 343 kPa, transient hot wire | 0.02408 W/m/K
454.68 K, 778 kPa, transient hot wire | 0.02361 W/m/K
454.78 K, 524 kPa, transient hot wire | 0.02371 W/m/K
454.79 K, 524 kPa, transient hot wire | 0.02372 W/m/K
454.86 K, 776 kPa, transient hot wire | 0.02365 W/m/K
454.87 K, 339 kPa, transient hot wire | 0.02408 W/m/K
454.87 K, 774 kPa, transient hot wire | 0.02365 W/m/K
454.88 K, 340 kPa, transient hot wire | 0.02406 W/m/K
454.98 K, 523 kPa, transient hot wire | 0.02378 W/m/K and 0.02375 W/m/K
455.07 K, 337 kPa, transient hot wire | 0.02422 W/m/K
455.08 K, 338 kPa, transient hot wire | 0.02415 W/m/K
472.48 K, 3077 kPa, transient hot wire | 0.03434 W/m/K
472.49 K, 3077 kPa, transient hot wire | 0.03339 W/m/K
472.51 K, 2894 kPa, transient hot wire | 0.03274 W/m/K
472.53 K, 2894 kPa, transient hot wire | 0.034 W/m/K
472.53 K, 3077 kPa, transient hot wire | 0.034 W/m/K
472.55 K, 3077 kPa, transient hot wire | 0.03381 W/m/K
472.57 K, 2711 kPa, transient hot wire | 0.03198 W/m/K
472.58 K, 2894 kPa, transient hot wire | 0.03316 W/m/K
472.59 K, 2711 kPa, transient hot wire | 0.03186 W/m/K
472.59 K, 2894 kPa, transient hot wire | 0.03275 W/m/K
472.59 K, 3077 kPa, transient hot wire | 0.03373 W/m/K
472.6 K, 3077 kPa, transient hot wire | 0.03356 W/m/K
472.62 K, 3291 kPa, transient hot wire | 0.03462 W/m/K
472.63 K, 2711 kPa, transient hot wire | 0.03247 W/m/K
472.64 K, 2711 kPa, transient hot wire | 0.03224 W/m/K
472.64 K, 2894 kPa, transient hot wire | 0.03315 W/m/K and 0.03273 W/m/K
472.65 K, 3077 kPa, transient hot wire | 0.03407 W/m/K and 0.03386 W/m/K
472.67 K, 2504 kPa, transient hot wire | 0.03029 W/m/K
472.67 K, 3291 kPa, transient hot wire | 0.03475 W/m/K and 0.03505 W/m/K
472.68 K, 2504 kPa, transient hot wire | 0.02998 W/m/K
472.68 K, 2894 kPa, transient hot wire | 0.03347 W/m/K
472.7 K, 2711 kPa, transient hot wire | 0.0322 W/m/K
472.7 K, 2712 kPa, transient hot wire | 0.03222 W/m/K
472.7 K, 3078 kPa, transient hot wire | 0.03422 W/m/K and 0.0347 W/m/K
472.7 K, 4062 kPa, transient hot wire | 0.03638 W/m/K
472.71 K, 2894 kPa, transient hot wire | 0.03401 W/m/K
472.71 K, 4063 kPa, transient hot wire | 0.03625 W/m/K
472.73 K, 3291 kPa, transient hot wire | 0.03502 W/m/K and 0.03525 W/m/K
472.73 K, 3605 kPa, transient hot wire | 0.036 W/m/K
472.74 K, 3604 kPa, transient hot wire | 0.03572 W/m/K
472.75 K, 2505 kPa, transient hot wire | 0.03037 W/m/K
472.75 K, 2894 kPa, transient hot wire | 0.0336 W/m/K
472.75 K, 4063 kPa, transient hot wire | 0.03659 W/m/K
472.76 K, 2711 kPa, transient hot wire | 0.03263 W/m/K
472.77 K, 2712 kPa, transient hot wire | 0.03232 W/m/K
472.77 K, 2894 kPa, transient hot wire | 0.03342 W/m/K
472.77 K, 4063 kPa, transient hot wire | 0.0364 W/m/K
472.78 K, 3291 kPa, transient hot wire | 0.03545 W/m/K
472.78 K, 3605 kPa, transient hot wire | 0.03545 W/m/K
472.8 K, 4819 kPa, transient hot wire | 0.03773 W/m/K
472.81 K, 2264 kPa, transient hot wire | 0.02846 W/m/K
472.81 K, 2265 kPa, transient hot wire | 0.02848 W/m/K
472.81 K, 4062 kPa, transient hot wire | 0.03638 W/m/K
472.81 K, 4820 kPa, transient hot wire | 0.03801 W/m/K
472.82 K, 2505 kPa, transient hot wire | 0.03067 W/m/K and 0.03052 W/m/K
472.83 K, 2712 kPa, transient hot wire | 0.03316 W/m/K
472.83 K, 3291 kPa, transient hot wire | 0.03561 W/m/K
472.83 K, 4063 kPa, transient hot wire | 0.03659 W/m/K
472.84 K, 2711 kPa, transient hot wire | 0.03262 W/m/K
472.85 K, 3605 kPa, transient hot wire | 0.03577 W/m/K
472.86 K, 3292 kPa, transient hot wire | 0.03541 W/m/K
472.86 K, 3605 kPa, transient hot wire | 0.0358 W/m/K
472.87 K, 2265 kPa, transient hot wire | 0.02848 W/m/K
472.87 K, 4820 kPa, transient hot wire | 0.03777 W/m/K
472.88 K, 4820 kPa, transient hot wire | 0.03795 W/m/K
472.91 K, 4063 kPa, transient hot wire | 0.03666 W/m/K
472.92 K, 4063 kPa, transient hot wire | 0.03656 W/m/K
472.93 K, 3605 kPa, transient hot wire | 0.03577 W/m/K
472.94 K, 4821 kPa, transient hot wire | 0.03795 W/m/K
472.95 K, 4821 kPa, transient hot wire | 0.03782 W/m/K
472.96 K, 2265 kPa, transient hot wire | 0.02876 W/m/K
472.96 K, 4064 kPa, transient hot wire | 0.03659 W/m/K
472.97 K, 2265 kPa, transient hot wire | 0.02862 W/m/K
472.98 K, 4064 kPa, transient hot wire | 0.0367 W/m/K
472.99 K, 3605 kPa, transient hot wire | 0.03603 W/m/K
472.99 K, 3606 kPa, transient hot wire | 0.0358 W/m/K
472.99 K, 5939 kPa, transient hot wire | 0.03924 W/m/K
473.01 K, 4823 kPa, transient hot wire | 0.03784 W/m/K
473.03 K, 4823 kPa, transient hot wire | 0.038 W/m/K
473.06 K, 1890 kPa, transient hot wire | 0.02666 W/m/K
473.06 K, 2265 kPa, transient hot wire | 0.02868 W/m/K
473.06 K, 5939 kPa, transient hot wire | 0.03956 W/m/K
473.07 K, 605 kPa, hot wire | 0.02596 W/m/K
473.08 K, 606 kPa, hot wire | 0.02604 W/m/K
473.08 K, 1889 kPa, transient hot wire | 0.02628 W/m/K
473.08 K, 2265 kPa, transient hot wire | 0.02867 W/m/K
473.08 K, 5937 kPa, transient hot wire | 0.03959 W/m/K
473.1 K, 4824 kPa, transient hot wire | 0.03789 W/m/K and 0.03779 W/m/K
473.11 K, 430 kPa, hot wire | 0.0254 W/m/K
473.13 K, 429 kPa, hot wire | 0.02498 W/m/K
473.14 K, 204 kPa, hot wire | 0.0245 W/m/K and 0.02427 W/m/K
473.14 K, 5937 kPa, transient hot wire | 0.03959 W/m/K and 0.03958 W/m/K
473.15 K, 1888 kPa, transient hot wire | 0.0266 W/m/K
473.16 K, 2265 kPa, transient hot wire | 0.02905 W/m/K
473.17 K, 607 kPa, hot wire | 0.02579 W/m/K
473.17 K, 2265 kPa, transient hot wire | 0.0291 W/m/K
473.18 K, 607 kPa, hot wire | 0.02602 W/m/K
473.19 K, 7819 kPa, transient hot wire | 0.04147 W/m/K
473.19 K, 49267 kPa, transient hot wire | 0.06278 W/m/K
473.21 K, 47 kPa, hot wire | 0.02404 W/m/K
473.21 K, 427 kPa, hot wire | 0.02512 W/m/K
473.21 K, 49264 kPa, transient hot wire | 0.06294 W/m/K
473.22 K, 426 kPa, hot wire | 0.02501 W/m/K
473.22 K, 5937 kPa, transient hot wire | 0.03959 W/m/K
473.23 K, 47 kPa, hot wire | 0.02385 W/m/K
473.24 K, 203 kPa, hot wire | 0.02435 W/m/K and 0.02438 W/m/K
473.24 K, 5937 kPa, transient hot wire | 0.03993 W/m/K
473.26 K, 49261 kPa, transient hot wire | 0.06261 W/m/K
473.26 K, 49266 kPa, transient hot wire | 0.06275 W/m/K
473.27 K, 607 kPa, hot wire | 0.02598 W/m/K and 0.02584 W/m/K
473.27 K, 1888 kPa, transient hot wire | 0.02674 W/m/K
473.27 K, 49222 kPa, transient hot wire | 0.06278 W/m/K
473.27 K, 49223 kPa, transient hot wire | 0.06286 W/m/K
473.28 K, 47 kPa, hot wire | 0.02405 W/m/K
473.28 K, 1888 kPa, transient hot wire | 0.02686 W/m/K
473.28 K, 7819 kPa, transient hot wire | 0.0414 W/m/K
473.29 K, 423 kPa, hot wire | 0.02534 W/m/K
473.29 K, 5935 kPa, transient hot wire | 0.03933 W/m/K
473.29 K, 7822 kPa, transient hot wire | 0.04164 W/m/K
473.3 K, 47 kPa, hot wire | 0.02401 W/m/K
473.3 K, 425 kPa, hot wire | 0.02526 W/m/K
473.31 K, 5936 kPa, transient hot wire | 0.03955 W/m/K
473.33 K, 202 kPa, hot wire | 0.02458 W/m/K
473.33 K, 7818 kPa, transient hot wire | 0.04161 W/m/K
473.33 K, 33947 kPa, transient hot wire | 0.05683 W/m/K
473.33 K, 49216 kPa, transient hot wire | 0.06307 W/m/K
473.34 K, 203 kPa, hot wire | 0.02431 W/m/K
473.34 K, 33948 kPa, transient hot wire | 0.05717 W/m/K
473.35 K, 47 kPa, hot wire | 0.02449 W/m/K
473.35 K, 49221 kPa, transient hot wire | 0.06272 W/m/K
473.36 K, 47 kPa, hot wire | 0.02437 W/m/K
473.36 K, 606 kPa, hot wire | 0.02606 W/m/K
473.36 K, 7821 kPa, transient hot wire | 0.04152 W/m/K
473.37 K, 607 kPa, hot wire | 0.0258 W/m/K
473.38 K, 420 kPa, hot wire | 0.02536 W/m/K
473.38 K, 1887 kPa, transient hot wire | 0.02681 W/m/K
473.38 K, 1913 kPa, transient hot wire | 0.02688 W/m/K
473.38 K, 49255 kPa, transient hot wire | 0.06283 W/m/K
473.39 K, 419 kPa, hot wire | 0.0252 W/m/K
473.39 K, 1474 kPa, transient hot wire | 0.02551 W/m/K
